How the values were obtained:
M13 phage = assay: Inactivation test of M13 phage in solution (plaque count on E. coli JM109); format: cell-based; details: 9 M urea, 1 hour
Experimental: This solution was added in the 1.5 mL volume tube to prepare a protease treatment solution. […] This solution was added in the 1.5 mL volume tube to prepare an urea treatment solution. […] This solution was added in the 1.5 mL volume tube to prepare an urea/protease treatment solution. Each solution was incubated at 37° C. for 1 hour. After the incubation, 600 μL of PEG solution (20% PEG6000, 2.5M NaCl) was added, and the solution was allowed to stand in ice for 3 hours. […] After incubating the medium at 37° C. for 5 hours, the number of the plaques appeared was counted to determine pfu. […] Into this solution in the 1.5 mL volume tube, 0, 0.08, 0.8 and 8 μL each of pfu protease (manufactured by Takara Bio Co.) solution was added. […] Into this solution in the 1.5 mL volume tube, 0, 0.08, 0.8 and 8 μL each of pfu protease (manufactured by Takara Bio Co.) solution was added. […] Each treatment solution was incubated at 37° C. for 1 hour. After the incubation, 600 μL of PEG solution (20% PEG6000, 2.5M NaCl) was added, and the solution was allowed to stand in ice for 3 hours. […] After incubating the medium at 37° C. for 5 hours, the number of the plaques appeared was counted to determine pfu. […] After the incubation, 600 μL of PEG solution (20% PEG, 2.5M NaCl) was added, and the solution was allowed to stand in ice for 3 hours. […] After incubating the medium at 37° C. for 5 hours, the number of the plaques appeared was counted to determine pfu for evaluating the infection ability. The inactivation ratio of M13 phage was calculated from the results in Table 10, and is shown in the graph in FIG.

λ-phage = assay: Inactivation test of λ-phage in solution (plaque count on E. coli XL1-Blue MRF′); format: cell-based
cedar antigen Cryj-1 = cedar antigen Cryj-1 (Cryptomeria japonica, UniProt P18632); assay: Electrophoresis of treated cedar antigen Cryj-1; format: biochemical; details: 10 μL 5 N HCL per 10 μL Cj-1 solution, 60° C., 60 minutes
Chain of cedar antigen Cryj-1 (P18632 22-374): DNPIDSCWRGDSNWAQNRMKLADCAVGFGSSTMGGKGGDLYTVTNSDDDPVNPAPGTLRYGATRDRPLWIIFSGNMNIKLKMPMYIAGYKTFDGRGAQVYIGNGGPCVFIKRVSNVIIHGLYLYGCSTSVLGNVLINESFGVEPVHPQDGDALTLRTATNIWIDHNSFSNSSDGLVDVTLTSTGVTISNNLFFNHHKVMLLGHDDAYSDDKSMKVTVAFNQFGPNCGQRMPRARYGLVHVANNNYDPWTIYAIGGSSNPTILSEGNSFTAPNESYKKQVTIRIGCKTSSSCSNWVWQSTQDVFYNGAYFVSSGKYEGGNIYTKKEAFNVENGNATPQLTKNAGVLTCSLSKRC

cedar antigen Cryj-2 = cedar antigen Cryj-2 (Cryptomeria japonica, UniProt P43212); assay: Electrophoresis of treated cedar antigen Cryj-2; format: biochemical; details: 10 μL 5 N HCL per 10 μL Cj-2 solution, 60° C., 60 minutes
Chain of cedar antigen Cryj-2 (P43212 46-433): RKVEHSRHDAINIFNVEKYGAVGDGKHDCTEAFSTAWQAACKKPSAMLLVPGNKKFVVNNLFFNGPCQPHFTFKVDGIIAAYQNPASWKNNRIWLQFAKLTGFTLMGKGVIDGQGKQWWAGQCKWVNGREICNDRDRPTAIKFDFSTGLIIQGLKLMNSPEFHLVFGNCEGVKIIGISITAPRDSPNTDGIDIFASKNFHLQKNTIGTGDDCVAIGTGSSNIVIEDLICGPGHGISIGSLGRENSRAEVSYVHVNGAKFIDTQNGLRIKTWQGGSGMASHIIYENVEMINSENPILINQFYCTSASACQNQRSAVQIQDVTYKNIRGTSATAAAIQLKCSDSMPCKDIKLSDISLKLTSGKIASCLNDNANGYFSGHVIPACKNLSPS

mite allergen = assay: Mite allergen inactivation in mite extract, detected with DaniScan; format: biochemical
cedar extract = assay: Electrophoresis of treated cedar extract (protein staining); format: biochemical
Cj-1 allergen = Cj-1 allergen (Cryptomeria japonica, UniProt P18632); assay: Electrophoresis and Western blotting with Cj-1 antibody; format: biochemical, cedar; details: for denaturation of Cj-1 protein (Western band): 5 N HCl, 60° C., 60 minutes
Chain of Cj-1 allergen (P18632 22-374): as the sequence (P18632 22-374) above

[1] = 37° C., 1 hour, pfu protease S final 2%, 9 M urea

NC(N)=O [Urea, urea]
inactivation ratio of M13 phage (M13 phage; 37° C.): about 50% | Infection ability of M13 phage (M13 phage; protease concentration 0, 37° C.): 6.3 × 10^9 | Infection ability of M13 phage (M13 phage; 37° C., pfu protease S final 2%): 1.1 × 10^10 pfu/mL | Infection ability of λ-phage (λ-phage; 3 M urea, 37° C., treatment time 0 min): 9.4 × 10^7 pfu/ml | Infection ability of λ-phage (λ-phage; 3 M urea, 37° C., treatment time 15 min): 1.5 × 10^8 pfu/ml | Infection ability of λ-phage (λ-phage; 3 M urea, 37° C., treatment time 60 min): 1.1 × 10^8 pfu/ml | inactivation of λ-phage (in words) (λ-phage; 3 M urea, irrespective of the treatment time): not substantially inactivated | Infection ability of λ-phage (λ-phage; 9 M urea, 37° C., treatment time 0 min): 4 × 10^6 pfu/ml | Infection ability of λ-phage by adding 9 M urea (λ-phage; 9 M urea, 37° C., treatment time 0 min (Table 6)): 8.4 × 10^5 pfu/mL | Infection ability of λ-phage by adding 9 M urea (λ-phage; 9 M urea, 37° C., treatment time 7.5 min): 0 pfu/mL | Infection ability of λ-phage (λ-phage; 9 M urea, 37° C., treatment time 15 min): 0 pfu/ml | Infection ability of λ-phage by adding 9 M urea (λ-phage; 9 M urea, 37° C., treatment time 15 min (Table 6)): 0 pfu/mL | Infection ability of λ-phage by adding 9 M urea (λ-phage; 9 M urea, 37° C., treatment time 30 min): 0 pfu/mL | Infection ability of λ-phage (λ-phage; 9 M urea, 37° C., treatment time 60 min): 0 pfu/ml | Infection ability of λ-phage by adding 9 M urea (λ-phage; 9 M urea, 37° C., treatment time 60 min (Table 6)): 0 pfu/mL | inactivation of λ-phage (in words) (λ-phage; 9 M urea, treatment time of 15 minutes or more): completely inactivated | Infection ability of λ-phage (λ-phage; [1]): 0 pfu/mL | inactivation of λ-phage (in words) (λ-phage; [1]): inactivated | inactivation ratio of λ-phage (λ-phage; immediately after contacting 9 M urea): about 99.96%

Cl [acid, hydrochloric acid]
denaturation of Cj-1 protein (bands) (cedar antigen Cryj-1): most of the cedar allergen Cj-1 protein was denatured | denaturation of Cj-2 protein (bands) (cedar antigen Cryj-2): most of the cedar allergen Cj-2 protein was denatured | mite allergen inactivation (DaniScan band) (mite allergen; 2.5 M hydrochloric acid, 60° C., 60 minutes): most of the allergen is inactivated | denaturation of cedar proteins (bands) (cedar extract; 10 μL 5 N HCL per 10 μL cedar preparation, 60° C., 60 minutes): most of the proteins derived from cedar was denatured | denaturation of Cj-1 protein (Western band) (Cj-1 allergen; Cj-1 solution): most of the cedar antigen Cj-1 protein was denatured | denaturation of Cj-1 protein (Western band) (Cj-1 allergen; cedar extract): most of the cedar antigen Cj-1 protein was denatured

[Na+].[OH-] [alkali, sodium hydroxide]
mite allergen inactivation (DaniScan band) (mite allergen; 2.5 M sodium hydroxide, 40° C. and 60° C., 10 minutes): inactivated

B1: papain: purified edible papain manufactured by Nagase Chemtechs Co. (protein, UniProt P00784 134-345, looked up)
Papain: IPEYVDWRQKGAVTPVKNQGSCGSCWAFSAVVTIEGIIKIRTGNLNEYSEQELLDCDRRSYGCNGGYPWSALQLVAQYGIHYRNTYPYEGVQRYCRSREKGPYAAKTDGVRQVQPYNEGALLYSIANQPVSVVLEAAGKDFQLYRGGIFVGPCGNKVDHAVAAVGYGPNYILIKNSWGTGWGENGYIRIKRGTGNSYGVCGLYTSSFYPVKN
decomposition of cedar proteins (bands) (cedar extract; 3 μL (0.2 g/mL) papain solution, 40° C., 15 minutes): most of the cedar proteins had been decomposed | inactivation of Cj-1 allergen (Western band) (Cj-1 allergen; cedar extract, 3 μL (0.2 g/mL) papain, 40° C., 15 minutes): completely inactivated

From patent publication US20050042716A1, “Allergen inactivating method, allergen inactivating filter, air treating apparatus, virus inactivating agent, virus inactivating method, virus inactivating filter, air conditoning unit and air conditioner” (priority 2003, published 2005)
